Test results: patent US20260144788A1, “COMPOUND FOR SHP2 PROTEIN DEGRADATION AND MEDICAL USES THEREOF” (UBIX THERAPEUTICS, INC., priority 2022, published 2026)

Target: T1, SHP2 protein (Homo sapiens, UniProt Q06124)
T1 sequence (Q06124 1-593): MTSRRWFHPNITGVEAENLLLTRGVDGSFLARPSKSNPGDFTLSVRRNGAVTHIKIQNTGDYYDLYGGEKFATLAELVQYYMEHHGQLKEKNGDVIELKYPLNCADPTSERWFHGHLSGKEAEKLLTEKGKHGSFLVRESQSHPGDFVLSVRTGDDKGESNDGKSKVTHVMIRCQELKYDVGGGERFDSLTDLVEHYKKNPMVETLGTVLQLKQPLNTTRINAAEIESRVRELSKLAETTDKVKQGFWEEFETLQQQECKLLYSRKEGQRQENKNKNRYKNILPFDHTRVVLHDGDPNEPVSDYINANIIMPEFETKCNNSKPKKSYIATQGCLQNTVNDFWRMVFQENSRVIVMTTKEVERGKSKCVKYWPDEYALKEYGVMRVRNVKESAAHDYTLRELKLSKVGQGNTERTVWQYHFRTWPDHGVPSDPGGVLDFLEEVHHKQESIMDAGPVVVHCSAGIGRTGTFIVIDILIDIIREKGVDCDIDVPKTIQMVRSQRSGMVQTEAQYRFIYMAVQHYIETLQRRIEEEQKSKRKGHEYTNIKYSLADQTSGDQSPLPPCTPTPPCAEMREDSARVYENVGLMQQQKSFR
Test: Measurement of SHP2 protein degradation in MV-4-11 cells (western blotting)
Type: cell-based
Parameters: endogenous in cells
Settings: harvested after 24 hours
Description: MV-4-11 cells were treated with the synthesized Example compounds, and the amount of SHP2 protein present in the cells was measured using western blotting detection. The protocol for the experiment conducted using MV-4-11 cells is as follows.
[Culture] MV-4-11 cells were resuspended in IMDM MEDIUM (Hyclone, SH30228.01), 5% FBS (Hyclone, SV30207.02), 1% Penicillin-streptomycin (Welgene, LS 202-02) media and seeded at 1×10^6/mL in 12-well plates (1 mL each).
[Compound treatment]12-well plates were treated as follows. 10 mM stock dissolved in DMSO was serially diluted 1/100 or 1/10 with media, and the compounds were treated to the cells at a final concentration of 0.01, 0.1, 1 μM or 0.001, 0.01, 0.1 μM, and harvested after 24 hours. For the negative control group, DMSO diluted 1/100 or 1/1000 in media was added (3 μL DMSO+297 μL media or 1 μL DMSO+999 μL media).
[Harvest] Each well was pipetted with a 1 mL pipette, collected in a 1.5 mL microtube, and centrifuged (500 g, 5 min, 4° C.). The supernatant was removed, washed with PBS, and centrifuged again (500 g, 5 min, 4° C.). The supernatant was removed and a pellet was prepared.
[Cell lysis and sample preparation] Lysis buffer was prepared as follows. RIPA buffer (Biosesang, RC2038-050-00)+0.5 mM PMSF (SIGMA, P7626)+1× Protease/Phosphatase Inhibitor (Cell signaling, 5872S) were added at 50 μL per tube and incubated on ice for 30 minutes (vortexed at 0 and 30 minutes). After sonication (10 sec pulse, 30 sec rest, 5 cycles, 70% amplification) and centrifugation (15,000 g, 15 min, 4° C.), only the supernatant was transferred to a microtube. RIPA buffer 7.5 μL and sample 2.5 μL were added to a 96-well plate to dilute to 1/4, and then BCA Protein Assay Kit (iNtRON, 21071) A and B were mixed in a 50:1 ratio and 200 μL each was added. After that, the plate was incubated at 37° C. for 30 minutes and left at room temperature for 10 minutes. After shaking for 10 seconds with a SYNERGY H1 microplate reader from BioTek, the absorbance was measured at 562 nm. The protein was quantified using the measured value to prepare a sample, which was then incubated at 70° C. for 10 minutes. The sample buffer used at this time is a mixture of NuPAGE or Bolt 4× sample buffer (Invitrogen) and each 10× sample reducing agent according to the gel to be used, and RIPA buffer was used for protein dilution.
[Western blotting detection] Equal amounts of samples were loaded onto NuPAGE or Bolt Bis-tris 4-12% gradient gels and run (200 V, 35 min). This was transferred to […] NC membranes using Trans-blot Turbo (BIO-RAD) (1.3 A constant, 25 V limit, 15 min), and was blocked at room temperature for 1 hour with Skim milk or Intercept Blocking Buffer (LI-COR, 927-60001):0.1% TBST=1:1. Anti-SHPTP2 Mouse (1:500 in 2% BSA/0.2% TBST, size: 70 kDa, Santacruz sc-7384) was incubated overnight at 4° C., and Anti-GAPDH Rabbit (1:2,000 in 2% BSA/0.2% TBST, size: 37 kDa, CST #2118) was incubated at room temperature for 1.5 hours or 3 hours. After washing three times for 5 minutes each with 0.2% TBST washing buffer, secondary antibodies Anti-Mouse IgG (1:5,000 in 2% BSA/0.2% TBST, CST) and IRDye® 680RD Goat anti-Rabbit IgG Secondary Antibody (1:10,000 in 2% BSA/0.2% TBST, LI-COR 926-68071) were added, and incubated on a rocker at room temperature for 45 minutes. The resultants were washed five times for 5 minutes each with 0.2% TBST washing buffer, and detected using LI-COR's Odyssey. GAPDH was detected with a 700 nm channel, and SHPTP2 was detected using SuperSignal West Pico PLUS Chemiluminescent Substrate.

| Structure (SMILES) | SHP2% degradation (0.01 μM) [%] | SHP2% degradation (0.1 μM) [%] |
| --- | --- | --- |
| Cc1ncsc1-c1ccc(CNC(=O)[C@@H]2C[C@@H](O)CN2C(=O)[C@@H](NC(=O)C2(F)CC2)C(C)(C)C)c(O[C@H]2CC[C@H](C(=O)N3CCC(CNc4cccc(Sc5cnc(N6CCC(C)(CN)CC6)cn5)c4Cl)CC3)CC2)c1 [Example 19, (2S,4R)—N-(2-(((1R,4S)-4-(4-(((3-((5-(4-(aminomethyl)-4-methylpiperidin-1-yl)pyrazin-2-yl)thio)-2-chlorophenyl)amino)methyl)piperidine-1-carbonyl)cyclohexyl)oxy)-4-(4-methylthiazol-5-yl)benzyl)-1-((S)-2-(1-fluorocyclopropane-1-carboxamido)-3,3-dimethylbutanoyl)-4-hydroxypyrrolidine-2-carboxamide] | 50.4 | 95.7 |
| CC(=O)N[C@H](C(=O)N1C[C@H](O)C[C@H]1C(=O)NCc1ccc(-c2scnc2C)cc1O[C@H]1CC[C@H](C(=O)N2CC(Nc3cccc(Sc4cnc(N5CCC6(CC5)Cc5ccccc5[C@H]6N)cn4)c3Cl)C2)CC1)C(C)(C)C [Example 30, (2S,4R)-1-((S)-2-acetamido-3,3-dimethylbutanoyl)-N-(2-(((1R,4S)-4-(3-((3-((5-((S)-1-amino-1,3-dihydrospiro[indene-2,4′-piperidin]-1′-yl)pyrazin-2-yl)thio)-2-chlorophenyl)amino)azetidine-1-carbonyl)cyclohexyl)oxy)-4-(4-methylthiazol-5-yl)benzyl)-4-hydroxypyrrolidine-2-carboxamide] | 86.1 | 99.9 |
| Cc1ncsc1-c1ccc(CNC(=O)[C@@H]2C[C@@H](O)CN2C(=O)[C@@H](NC(=O)C2(F)CC2)C(C)(C)C)c(OCCN2CCN(C(=O)C3CN(c4nccc(Sc5cnc(N6CCC(C)(CN)CC6)cn5)c4Cl)C3)CC2)c1 [Example 53, (2S,4R)—N-(2-(2-(4-(1-(4-((5-(4-(aminomethyl)-4-methylpiperidin-1-yl)pyrazin-2-yl)thio)-3-chloropyridin-2-yl)azetidine-3-carbonyl)piperazin-1-yl)ethoxy)-4-(4-methylthiazol-5-yl)benzyl)-1-((S)-2-(1-fluorocyclopropane-1-carboxamido)-3,3-dimethylbutanoyl)-4-hydroxypyrrolidine-2-carboxamide] | 70.4 | 99.4 |
| CC(=O)N[C@H](C(=O)N1C[C@H](O)C[C@H]1C(=O)N[C@@H](C)c1ccc(-c2scnc2C)cc1OC1CCN(C(=O)C2CCN(c3nccc(Sc4cnc(N5CCC(C)(CN)CC5)cn4)c3Cl)CC2)CC1)C(C)(C)C [Example 87, (2S,4R)-1-((S)-2-acetamido-3,3-dimethylbutanoyl)-N—((S)-1-(2-((1-(1-(4-((5-(4-(aminomethyl)-4-methylpiperidin-1-yl)pyrazin-2-yl)thio)-3-chloropyridin-2-yl)piperidine-4-carbonyl)piperidin-4-yl)oxy)-4-(4-methylthiazol-5-yl)phenyl)ethyl)-4-hydroxypyrrolidine-2-carboxamide] | 95.8 | 100.0 |
| Cc1ncsc1-c1ccc(CNC(=O)[C@@H]2C[C@@H](O)CN2C(=O)[C@@H](NC(=O)C2(F)CC2)C(C)(C)C)c(OC2CN(C(=O)C3CCN(c4nccc(Sc5cnc(N6CCC(C)(CN)CC6)cn5)c4Cl)CC3)C2)c1 [Example 73, (2S,4R)—N-(2-((1-(1-(4-((5-(4-(aminomethyl)-4-methylpiperidin-1-yl)pyrazin-2-yl)thio)-3-chloropyridin-2-yl)piperidine-4-carbonyl)azetidin-3-yl)oxy)-4-(4-methylthiazol-5-yl)benzyl)-1-((S)-2-(1-fluorocyclopropane-1-carboxamido)-3,3-dimethylbutanoyl)-4-hydroxypyrrolidine-2-carboxamide] | 65.8 | 97.7 |
| Cc1ncsc1-c1ccc(CNC(=O)[C@@H]2C[C@@H](O)CN2C(=O)[C@@H](NC(=O)C2(F)CC2)C(C)(C)C)c(OC2CCN(C(=O)[C@H]3C[C@H](Nc4nccc(Sc5cnc(N6CCC(C)(CN)CC6)cn5)c4Cl)C3)CC2)c1 [Example 61, (2S,4R)—N-(2-((1-((1r,3S)-3-((4-((5-(4-(aminomethyl)-4-methylpiperidin-1-yl)pyrazin-2-yl)thio)-3-chloropyridin-2-yl)amino)cyclobutanecarbonyl)piperidin-4-yl)oxy)-4-(4-methylthiazol-5-yl)benzyl)-1-((S)-2-(1-fluorocyclopropane-1-carboxamido)-3,3-dimethylbutanoyl)-4-hydroxypyrrolidine-2-carboxamide] | 80.3 | 99.3 |
| Cc1ncsc1-c1ccc(CNC(=O)[C@@H]2C[C@@H](O)CN2C(=O)[C@@H](NC(=O)C2(F)CC2)C(C)(C)C)c(OC2CCN(C(=O)C3CCN(c4nccc(Sc5cnc(N6CCC(C)(N)CC6)cn5)c4Cl)CC3)CC2)c1 [Example 66, (2S,4R)—N-(2-((1-(1-(4-((5-(4-amino-4-methylpiperidin-1-yl)pyrazin-2-yl)thio)-3-chloropyridin-2-yl)piperidine-4-carbonyl)piperidin-4-yl)oxy)-4-(4-methylthiazol-5-yl)benzyl)-1-((S)-2-(1-fluorocyclopropane-1-carboxamido)-3,3-dimethylbutanoyl)-4-hydroxypyrrolidine-2-carboxamide] | 78.6 | 99.6 |
| Cc1ncsc1-c1ccc(CNC(=O)[C@@H]2C[C@@H](O)CN2C(=O)[C@@H](NC(=O)C2(F)CC2)C(C)(C)C)c(OC2CCN(C(=O)[C@H]3C[C@@H](Nc4nccc(Sc5cnc(N6CCC(C)(CN)CC6)cn5)c4Cl)C3)CC2)c1 [Example 59, (2S,4R)—N-(2-((1-((1s,3R)-3-((4-((5-(4-(aminomethyl)-4-methylpiperidin-1-yl)pyrazin-2-yl)thio)-3-chloropyridin-2-yl)amino)cyclobutanecarbonyl)piperidin-4-yl)oxy)-4-(4-methylthiazol-5-yl)benzyl)-1-((S)-2-(1-fluorocyclopropane-1-carboxamido)-3,3-dimethylbutanoyl)-4-hydroxypyrrolidine-2-carboxamide] | 81.7 | 99.5 |
